Reference: patent US20040097591A1, “Use of selective progesterone receptor modulators for the treatment of androgen deficiency” (priority 2002, published 2004)

What was measured:
[1] = system: testosterone levels; assay: Phase II study of J867: total testosterone levels over 12 weeks; format: in vivo, female subjects; settings: for mean testosterone concentration increase over the treatment period: 12 week treatment, female subjects aged 18-49
Procedure: (§1) The effect of SPRMs on testosterone levels and SHBG levels was studied using various doses of J867 over three months. The study was a phase II, multi-center, randomized, double blind, parallel group study of J867 at doses of 5 mg, 10 mg, and 25 mg once a day (QD)compared to placebo. Approximately 120 female subjects between the ages of 18 and 49 were enrolled in the study and randomly assigned to one of the four dosing groups above. During the 12 week study, testosterone and SHBG were measured at screening visits during weeks 2, 4, 8, and 12 of the study.
FIG. 1 is a graph showing total testosterone levels as a function of time during the study. […] Testosterone concentrations were relatively constant for the group receiving placebo. […] Over the treatment period, the mean testosterone concentrations for the 5 mg QD group increased approximately 7-15 ng/dL; the mean increase for the 10 mg QD group was approximately 15-21 ng/dL; and the mean concentrations observed following treatment with 25 mg QD increased approximately 16-25 ng/dL.

[2] = system: SHBG levels; assay: Phase II study of J867: SHBG levels over 12 weeks; format: in vivo, female subjects
Procedure: as §1
SHBG levels were also measured at weeks 2, 4, 8, and 12 of the study.

[3] = molecular target: T1, progesterone receptor (Oryctolagus cuniculus, UniProt P06186); settings: rabbit model, scale of 0-4; agonistic/antagonistic effect at the progesterone receptor; cited from earlier work
T1 construct: effects of compounds at the progesterone receptor using a rabbit model; from tissue; host or cells: living rabbit (whole-animal model)
T1 sequence (P06186 1-930): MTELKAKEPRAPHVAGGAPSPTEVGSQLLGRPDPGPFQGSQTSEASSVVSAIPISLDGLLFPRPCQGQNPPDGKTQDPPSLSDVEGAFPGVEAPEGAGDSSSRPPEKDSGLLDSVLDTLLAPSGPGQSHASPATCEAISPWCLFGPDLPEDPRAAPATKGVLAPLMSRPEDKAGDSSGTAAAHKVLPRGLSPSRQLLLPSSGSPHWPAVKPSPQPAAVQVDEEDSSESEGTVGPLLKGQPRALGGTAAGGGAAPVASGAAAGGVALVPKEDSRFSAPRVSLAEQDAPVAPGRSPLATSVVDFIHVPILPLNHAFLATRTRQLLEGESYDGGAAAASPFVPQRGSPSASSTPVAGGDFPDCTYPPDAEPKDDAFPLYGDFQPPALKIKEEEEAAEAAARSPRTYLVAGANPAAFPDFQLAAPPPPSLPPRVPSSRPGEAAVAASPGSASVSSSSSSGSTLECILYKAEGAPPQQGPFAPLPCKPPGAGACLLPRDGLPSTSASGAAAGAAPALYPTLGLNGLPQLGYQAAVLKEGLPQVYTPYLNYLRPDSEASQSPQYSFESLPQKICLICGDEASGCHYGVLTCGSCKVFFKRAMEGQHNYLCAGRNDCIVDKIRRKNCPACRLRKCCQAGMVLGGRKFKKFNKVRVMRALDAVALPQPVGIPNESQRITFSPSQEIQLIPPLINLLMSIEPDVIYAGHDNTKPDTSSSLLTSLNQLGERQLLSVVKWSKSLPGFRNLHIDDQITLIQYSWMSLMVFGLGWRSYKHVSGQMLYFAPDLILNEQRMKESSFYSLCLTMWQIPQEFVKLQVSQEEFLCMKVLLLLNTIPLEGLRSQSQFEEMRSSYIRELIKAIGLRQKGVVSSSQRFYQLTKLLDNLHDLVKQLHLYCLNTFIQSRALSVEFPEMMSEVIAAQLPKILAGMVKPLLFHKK

| Structure (SMILES) | mean testosterone concentration increase over the treatment period ([1]; 5 mg QD) [ng/dL] | mean testosterone concentration increase over the treatment period ([1]; 10 mg QD) [ng/dL] | mean testosterone concentration increase over the treatment period ([1]; 25 mg QD) [ng/dL] | total testosterone levels (FIG. 1) ([1]; all doses (5, 10, 25 mg QD)) | visit with largest mean increase of testosterone from baseline ([1]; all three dose groups (5, 10, 25 mg QD)) | testosterone concentrations at the end of the study ([1]; all three dose groups, week 12) | mean level of SHBG during treatment ([2]; 5 mg QD) | mean level of SHBG during treatment ([2]; 10 mg QD) | mean level of SHBG during treatment ([2]; 25 mg QD) | SHBG during the treatment period of three months (FIG. 2) ([2]; weeks 2, 4, 8, 12, doses not separated) | McPhail score [3] |
| --- | --- | --- | --- | --- | --- | --- | --- | --- | --- | --- | --- |
| COC[C@]1(OC)CC[C@H]2[C@@H]3CCC4=CC(=O)CCC4=C3[C@@H](c3ccc(/C=N/O)cc3)C[C@@]21C [J867, [4-[17β-Methoxy-17α-(methoxymethyl)-3-oxoestra-4,9-dien-11β-yl]benzaldehyd-(1E)-oxim]] | 7 to 15 | 15 to 21 | 16 to 25 | testosterone levels increased with all doses | week 2 visit | still elevated above baseline | remained relatively constant | decreased from baseline | decreased from baseline | a decrease in SHBG | – |
| CC#C[C@]1(O)CC[C@H]2[C@@H]3CCC4=CC(=O)CCC4=C3[C@@H](c3ccc(N(C)C)cc3)C[C@@]21C [RU486, mifepristone] | – | – | – | – | – | – | – | – | – | – | less than 0.5 |
| CC(=O)[C@H]1CC[C@H]2[C@@H]3CCC4=CC(=O)CC[C@]4(C)[C@H]3CC[C@]12C [progesterone] | – | – | – | – | – | – | – | – | – | – | 4 |
